The subject of one assay is Murine colon C26 cells. Nature of the assay: Tumor Cell Proliferation Assay (ATP Lite), C26. The format is cell-based. The note with it: Mus musculus, 96 h, 4 days. As to the method: (§1) Murine colon C26, human melanoma A375 and human pancreatic MiaPaCa-2 cells were plated in 96 well Corning white plates (1500 cells/well for C26, and 2000 cells/well for A375, and MiaPaCa-2) and cultured overnight at 37° C. in 5% CO2. Inhibitors were serially diluted in 100 DMSO and subsequently added to cells to reach a final concentration of 0.25% DMSO. The cells were incubated for 4 days in the presence of test compounds in cell growth media (DMEM with 10% fetal bovine serum, 2 mM glutamine for C26, and MiaPaCa-2, and RPMI with 10% fetal bovine serum, 2 mM glutamine for A375). Cell proliferation was quantitated using the ATP lite cell proliferation kit (Packard). Columns 2-5 show the concentration of compounds required to induce 50% cell death (IC50 in μM) of […].

Assay [1] concerns human pancreatic MiaPaCa-2 cells. Nature of the assay: Tumor Cell Proliferation Assay (ATP Lite), MiaPaCa-2. The format is cell-based. The note with it: MIA PaCa-2, 96 h, 4 days. As to the method:
as §1

The test system of assay [2] is human melanoma A375 cells. As to the kind of experiment: Tumor Cell Proliferation Assay (ATP Lite), A375. The note with it: A-375, 96 h, 4 days. The format is cell-based. As for the experimental part:
as §1

The target in the next assay is human MEK1 (Homo sapiens, UniProt Q02750). As to the kind of experiment: MEK-1 Enzyme Assay (LANCE-HTRF). In kind it is biochemical. Conditions: 100 nM MEK1, 15 μM ATP, 300 nM ERK2, two hours. As for the experimental part:
The activity of the compounds of the present invention may be determined by the following procedure: Inhibition of human MEK1 kinase activity was monitored with a homogenous, fluorescence based assay. The assay uses time resolved fluorescence resonance energy transfer to probe for phosphorylation of […] by MEK1. The assay is carried out in low volume 96 well microtiterplates. In a total volume of 15 μl, compounds are incubated with 100 nM MEK1, 15 μM ATP, 300 nM ERK2 employing a buffer containing 20 mM TRIS/HCl, 10 mM MgCl2, 100 μM NaVO4, 1 mM DTT, and 0.005% Tween 20 (pH 7.4). After two hours, 5 nM Europium-anti-PY20 (Perkin Elmer) and 50 nM Anti-GST-Allophycocyanin (CisBio) in buffer containing 50 mM EDTA and 0.05% BSA are added and the reaction incubated for one hour in the dark. Time-resolved fluorescence is measured using a LJL-Analyst (Molecular Devices) with an excitation wavelength of 340 nm and an emission wavelength of 665 nm. The final concentration of DMSO is 2%.
(In general: In TR-FRET formats the signal depends on donor and acceptor labels being close together.)

The test system of a further assay is MiaPaCa2 xenograft. Nature of the assay: In vivo efficacy, MiaPaCa2 mouse xenograft model. The note with it: male nude mice. As for the experimental part:
(§2) Male nude (nu/nu) mice were injected subcutaneously above the right foreleg with certain number of cells of human tumor cell lines such as Colo-205, A375 or MiaPaCa2. Tumors were measured with calipers one week after cells were implanted. Tumor length (l) and width (w) were measured and tumor volume was calculated with the equation l*w^2/2. […] Tumor volume and body weight were measured for each animal on Days 0, 4, 6, 8, 10, 12 and 14. Tumor volume and percent body weight were analyzed via Two-Way Repeated Measures Analysis of Variance (RM-ANOVA) followed by Fisher's post-hoc multiple pair-wise comparisons of treatment group means.

Another assay concerns Colo-205 xenograft. As to the kind of experiment: In vivo efficacy, Colo-205 mouse xenograft model. Conditions: male nude mice. As to the method: as §2

human MEK1, sequence (Q02750 whole entry): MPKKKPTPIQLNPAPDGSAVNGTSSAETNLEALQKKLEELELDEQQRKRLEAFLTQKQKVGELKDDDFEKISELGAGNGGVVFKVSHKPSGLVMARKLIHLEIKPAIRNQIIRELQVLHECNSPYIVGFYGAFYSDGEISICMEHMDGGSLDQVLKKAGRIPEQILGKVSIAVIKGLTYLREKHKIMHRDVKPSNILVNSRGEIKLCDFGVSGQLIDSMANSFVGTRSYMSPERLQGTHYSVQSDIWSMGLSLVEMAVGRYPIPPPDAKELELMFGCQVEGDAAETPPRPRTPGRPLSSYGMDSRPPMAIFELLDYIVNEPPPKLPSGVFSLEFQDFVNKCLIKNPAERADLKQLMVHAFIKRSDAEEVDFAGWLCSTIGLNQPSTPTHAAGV

Take `O=C(N[C@@H]1CCC[C@@H](O)[C@H]1O)c1ccncc1Nc1ccc(Br)cc1Cl` (racemic) [(6), 3-(4-Bromo-2-chloro-phenylamino)-N-((1RS,2SR,3RS)-2,3-dihydroxy-cyclohexyl)-isonicotinamide]: the IC50 (in general, the midpoint of a concentration-inhibition curve) in the assay on Murine colon C26 cells worked out at 0.113 µM; in assay [1], 0.0753 µM; in assay [2], 0.0168 µM; at human MEK1, 0.038 µM.
The matching figures for `O=C(N[C@H]1CCC[C@H](O)[C@@H]1O)c1ccncc1Nc1ccc(I)cc1F` [(7), N-((1S,2R,3S)-2,3-dihydroxycyclohexyl)-3-(2-fluoro-4-iodophenylamino)isonicotinamide]: 5.4 µM, 2.12 µM, 0.274 µM and 2.67 µM.
With `O=C(N[C@@H]1CCC[C@@H](O)[C@H]1O)c1ccncc1Nc1ccc(I)cc1F` [Compound (8), N-[(1R,2S,3R)-2,3-dihydroxycyclohexyl]-3-[(2-fluoro-4-iodophenyl)amino]isonicotinamide], the IC50 with Murine colon C26 cells is 0.0047 µM; in assay [1] it was 0.0027 µM; in assay [2], 0.0016 µM; at human MEK1, 0.133 µM. The results for the TGI with MiaPaCa2 xenograft (33 μg/kg/day) and with MiaPaCa2 xenograft (50 μg/kg/day) were 100.97% and 110.74%, respectively. In addition, the “tumor growth inhibition (TGI)” value in the assay on Colo-205 xenograft (50 μg/kg*day, oral route) is 100.69%. The tumor growth inhibition in the assay on Colo-205 xenograft (150 μg/kg/day) turned out to be 115.33%.
In the case of `O=C(N[C@@H]1CCC[C@@H](O)[C@H]1O)c1ccncc1Nc1ccc(Br)cc1F` [(9), 3-(4-bromo-2-fluorophenylamino)-N-((1R,2S,3R)-2,3-dihydroxycyclohexyl)isonicotinamide], in the assay on Colo-205 xenograft (daily 1.5 mg/kg, oral route), the tumor growth inhibition worked out at 98.5%.
Take `O=C(N[C@@H]1CCC[C@@H](O)[C@H]1O)c1c(F)cncc1Nc1ccc(I)cc1F` (racemic) [(2)]: the IC50 in the assay with Murine colon C26 cells came out at 0.005 µM; in assay [1], 0.0045 µM; in assay [2] it was 0.001 µM; against human MEK1, 0.074 µM.
On the same counts, the results for `O=C(N[C@H]1CCC[C@H](O)[C@@H]1O)c1ccncc1Nc1ccc(I)cc1F` (racemic) [(3), N-[(1SR,2RS,3SR)-2,3-dihydroxycyclohexyl]-3-[(2-fluoro-4-iodophenyl)amino]isonicotinamide] are 0.016 µM, 0.0073 µM, 0.0014 µM and 0.0948 µM.
The matching figures for `O=C(N[C@@H]1CCC[C@@H](O)[C@H]1O)c1cc(Cl)ncc1Nc1ccc(I)cc1F` (racemic) [(1), 2-Chloro-N-((1RS,2SR,3RS)-2,3-dihydroxy-cyclohexyl)-5-(2-fluoro-4-iodo-phenylamino)-sonicotinamide]: 0.002 µM, 0.002 µM, 0.002 µM and 0.0345 µM.
On the same counts, the results for `O=C(N[C@@H]1CCC[C@@H](O)[C@H]1O)c1ccncc1Nc1ccc(Br)cc1F` (racemic) [(5), 3-(4-Bromo-2-fluoro-phenylamino)-N-((1RS,2SR,3RS)-2,3-dihydroxy-cyclohexyl)-isonicotinamide] are 0.073 µM, 0.0425 µM, 0.0075 µM and 0.098 µM.
Regarding `N[C@@H]1CCC[C@@H](OC(=O)c2c(F)cncc2Nc2ccc(I)cc2F)[C@H]1O` (racemic) [(4), 3-Fluoro-5-(2-fluoro-4-iodo-phenylamino)-isonicotinic acid (1RS,2SR,3RS)-3-amino-2-hydroxy-cyclohexyl ester], the IC50 with Murine colon C26 cells amounted to 0.02 µM; in assay [1], 0.049 µM; in assay [2], 0.0855 µM; at human MEK1, 0.16 µM.
On the same counts, the results for `O=C(N[C@@H]1CCC[C@@H](O)[C@H]1O)c1ccncc1Nc1ccccc1F` [(10), N-((1R,2S,3R)-2,3-Dihydroxy-cyclohexyl)-3-(2-fluoro-phenylamino)-isonicotinamide] are 0.15 µM, 0.074 µM, 0.0215 µM and 0.189 µM.
